# According to patent US20230271958A1, “SALT AND CRYSTAL FORM OF DIHYDROPYRIDO[2,3-d]PYRIMIDINE DERIVATE” (NANJING CHIA TAI TIANQING PHARMACEUTICAL CO., LTD., priority 2020, published 2023):
# Test: Solid stability of crystal form A (chemical purity by HPLC)
# Format: physicochemical
# Conditions: for Purity (%) after placement (day 20): exposed to air for 20 d; for Purity (%) before placement (day 0): exposed to air
# Procedure: Hot and humid conditions: temperature: 40° C., relative humidity: 75%, crystal form A was exposed to air for 20 d • b. High temperature conditions: temperature: 60° C., crystal form A was exposed to air for 20 d
# The chemical purity of crystal form A was measured by HPLC.
# Chromatographic column: ACE Excel 5 Super C18 (4.6×150 mm, 5 μm)
# Detection wavelength: 230 nm, column temperature: 30° C., flow rate: 1.0 mL/min
# Mobile phase: diammonium hydrogen phosphate (1.32 g) was weighed and dissolved in water (1000 mL), the solution was adjusted with phosphoric acid until the pH of the solution was 7.2, filtered, and used as A phase; and acetonitrile was used as B phase.
# [1] = condition a: 40° C., relative humidity 75%
compound,measurement,setting,value
CC(C)NC[C@@H](C(=O)N1CCN(c2ncnc3c2[C@H](C)CC(=O)N3)[C@H]2C[C@H]21)c1ccc(Cl)cc1.O=C(O)/C=C/C(=O)O [crystal form A],Purity (%) after placement (day 20),[1],99.89%
same,Purity (%) before placement (day 0),[1],99.84%
same,Purity (%) after placement (day 20),condition b: 60° C.,99.88%
same,Purity (%) before placement (day 0),condition b: 60° C.,99.84%
